Assay results from EP3056202A1, “BENZOPYRROLIDONE DERIVATIVES POSSESSING ANTIVIRAL AND ANTICANCER PROPERTIES” (Max-Planck-Gesellschaft zur Förderung der Wissenschaften …, priority 2015, dated 2016).
≈ marks a conversion by molar mass, not a printed value.

Experiments:
human Akt1 kinase = human Akt1 kinase (Homo sapiens, UniProt P31749); assay: In vitro Akt1 assay (IMAP fluorescence polarization, phosphorylation of TAMRA-peptide); type: biochemical; settings: 40 µM ATP; for inhibition at 12.5 µM: 12.5 uM compound, read-out: Akt1 inh% @12.5 uM
Experimental: The inhibition of Akt1 by the compounds described in the present invention were determined measuring the phosphorylation of a fluorescently-labeled peptide (TAMRA-peptide) by human Akt1 kinase by fluorescent polarization using a commercially available IMAP Screening Express Assay Kit (Molecular Devices).
Akt1 kinase assays were performed in low protein binding 384-well plates (Corning). Test compounds were diluted in 100% DMSO to 5 mM stock concentration and then further dilutions were made in H2O or 100% DMSO to desirable concentrations.
Each reaction consisted of 5 nM enzyme: Akt1 kinase, 400 nM TAMRA-peptide (5-TAMRA-GRTGRRNSI-COOH; Genecust), 40 µM ATP and kinase buffer: 20 mM MES pH6, 1 mM DTT, 10 mM MgCl2, 2 mM MnCl2, 0.01 V/V% TritonX (all reagents from Sigma-Aldrich).
(§1) For each reaction, 4 or 6 µl containing TAMRA-peptide, ATP and kinase buffer were combined with 2 µl diluted compound in H2O or 0.02 µl compound in 100% DMSO. The kinase reaction was started by the addition of 2 µl diluted enzyme. The reaction was allowed to run for 1 hour at room temperature. The reaction was stopped by adding 15 µl IMAP beads (1:400 beads in progressive (75% buffer A, 25% buffer B) 1x buffer). After an additional hour, fluorescent polarization (Ex: 550-10 nm, Em: 590-10 nm, Dich: 561 nm) was measured using an Analyst GT (Molecular Devices).

human Ack1 kinase = human Ack1 kinase (Homo sapiens, UniProt Q07912); assay: In vitro Ack1 assay (TranScreener ADP2 FP, generation of ADP); type: biochemical; settings: 12.5 uM compound; 3.5 µM ATP; read-out: Ack1 inh% @12.5 uM
Experimental: The activity of the compounds described in the present invention can be determined by the following kinase assay, which measures the generation of ADP by human Ack1 kinase by fluorescent polarization using a commercially available TranScreener ADP2 FP Assay Kit (BellBrook Labs).
Ack1 kinase assays were performed in low protein binding 384-well plates (Corning). Test compounds were diluted in 100% DMSO to 5 mM stock concentration and then further dilutions were made in H2O or 100% DMSO to desirable concentrations.
Each reaction consisted of 5 nM enzyme: Ack1 kinase, Poly Glu-Tyr (4:1) (Sigma), 3.5 µM ATP and kinase buffer: 20 mM HEPES pH7.5, 1 mM DTT, 2 mM MgCl2, 0.4 mM MnCl2, 0.01 V/V% Tween20 (all reagents from Sigma-Aldrich)
For each reaction, 4 or 6 µl containing Poly Glu-Tyr (4:1), ATP and kinase buffer were combined with 2 µl diluted compound in H2O or 0.02 µl compound in 100% DMSO. The kinase reaction was started by the addition of 2 µl diluted enzyme. The reaction was allowed to run for 1 hour at room temperature. The reaction was stopped by addition of 8 µl ADP detection mixture (1 x) (1 x Detection buffer + 4.78 µg/ml ADP2 Ab + 4 nM ADP Alexa633 Tracer). After an additional hour, fluorescent polarization (Ex: 630-35 nm, Em: 680-30 nm, Dich: 650 nm) was measured using an Analyst GT (Molecular Devices).

human Clk1 kinase = molecular target: T1, human Clk1 kinase (Homo sapiens, UniProt P49759); assay: In vitro Clk1 assay (IMAP fluorescence polarization); type: biochemical; settings: 0.45 µM ATP
T1 construct: Each reaction consisted of 4 nM enzyme: Clk1 kinase domain
Experimental: The activity of the compounds described in the present invention can be determined by the following kinase assay, which measures the phosphorylation of a fluorescently-labeled peptide by human Clk1 kinase by fluorescent polarization using a commercially available IMAP Screening Express Assay Kit (Molecular Devices).
Clk1 kinase assays were performed in low protein binding 384-well plates (Corning). Test compounds were diluted in 100% DMSO to 5 mM stock concentration and then further dilutions were made in H2O or 100% DMSO to desirable concentrations.
Each reaction consisted of 4 nM enzyme: Clk1 kinase domain, 400 nM TAMRA-AFRREWSPGKEAKK-NH2 (Genecust), 0.45 µM ATP (Sigma) and kinase buffer: 20 mM TRIS pH 8, 1 mM DTT, 0.4 mM MgCl2, 0.4 mM MnCl2, 0.01 V/V% Tween20 (all reagents from Sigma-Aldrich)
as §1, with “(1:600” for “(1:400”, “(80 %” for “(75%”, “20%” for “25%”

[1] = tested on: H1 N1 influenza virus strain A/WSN/33; assay: microbe, parasite or virus in culture; type: cell-based; settings: 36 h, read-out: Influenza replication IC50
[2] = tested on: A549 human lung carcinoma cells; assay: Cell-based EC50 determination, A549 cells (CellTiter-Glo cell viability); settings: A549, 24 h, read-out: A549 EC50 24h
Experimental: A549 human lung carcinoma cells were cultured in RPMI 1640 medium (Sigma) supplemented with 10% fetal bovine serum (Sigma) and Antibiotic-Antimycotic (Sigma) in tissue culture flasks at 37°C in a humidified 5% CO2 atmosphere. Cells were routinely assayed for mycoplasma contamination.
Two thousand cells were plated in 384-well tissue culture plates, and treated after 24 hours with a 10-point dilution series of the compounds (1.5 nM-30 uM), using the vehicle, DMSO as control. Cells were incubated for 24 hours after which the relative cell density was determined by CellTiter-Glo Luminescent Cell Viability Assay (Promega). This method determines the number of metabolically active cells in the culture based on quantitation of the ATP present. The luminescent signal was measured with an Analyst GT multimode reader (Molecular Devices). […]

physchem = type: physicochemical; settings: kinetic from dmso stock
Experimental: Samples were diluted in DMSO (control), phosphate buffer pH = 7.4 and pH = 2.0, from 5mM stock solutions (solved in DMSO), with a 120 µM final concentration. The samples were incubated for 24 hours at room temperature followed by 30 minutes centrifugation at 3700 rpm. 40 µl of the supernatants were injected into HPLC (Waters 2795 Alliance HPLC equipped with Waters 996 PDA Detector (HPLC column: Waters XBridge, RP C18, 3.5 µm, 4.6 mm x 50 mm; gradient MeCN/H2O, containing 0.1% HCOOH: 5% MeCN (0.5 min), 5% to 95% MeCN (5 min), 95% MeCN (0.5 min); flow rate: 2.0 ml/min)) and the AUC values (measured on sample specific wavelength) of the buffered samples were divided by the AUC values (same wavelength as buffered samples') of the DMSO control samples. Table 3: Solubility in water for several compounds according to general formula (I)

[3] = tested on: HCT-116 human colon carcinoma cell line; assay: In vitro growth inhibition of colon carcinoma cells, HCT-116 (CellTiter-Glo); type: cell-based; settings: 72 hours incubation, read-out: HCT116 EC50
[4] = tested on: HKE3 human colon carcinoma cell line; assay: In vitro growth inhibition of colon carcinoma cells, HKE3 (CellTiter-Glo); type: cell-based; settings: 72 hours incubation
[5] = tested on: HepG2 hepatoblastomaderived cell line; assay: In vitro growth inhibition, HepG2 (CellTiter-Glo); type: cell-based; settings: Homo sapiens, 72 hours incubation

human Ack1 kinase, sequence (Q07912 whole entry): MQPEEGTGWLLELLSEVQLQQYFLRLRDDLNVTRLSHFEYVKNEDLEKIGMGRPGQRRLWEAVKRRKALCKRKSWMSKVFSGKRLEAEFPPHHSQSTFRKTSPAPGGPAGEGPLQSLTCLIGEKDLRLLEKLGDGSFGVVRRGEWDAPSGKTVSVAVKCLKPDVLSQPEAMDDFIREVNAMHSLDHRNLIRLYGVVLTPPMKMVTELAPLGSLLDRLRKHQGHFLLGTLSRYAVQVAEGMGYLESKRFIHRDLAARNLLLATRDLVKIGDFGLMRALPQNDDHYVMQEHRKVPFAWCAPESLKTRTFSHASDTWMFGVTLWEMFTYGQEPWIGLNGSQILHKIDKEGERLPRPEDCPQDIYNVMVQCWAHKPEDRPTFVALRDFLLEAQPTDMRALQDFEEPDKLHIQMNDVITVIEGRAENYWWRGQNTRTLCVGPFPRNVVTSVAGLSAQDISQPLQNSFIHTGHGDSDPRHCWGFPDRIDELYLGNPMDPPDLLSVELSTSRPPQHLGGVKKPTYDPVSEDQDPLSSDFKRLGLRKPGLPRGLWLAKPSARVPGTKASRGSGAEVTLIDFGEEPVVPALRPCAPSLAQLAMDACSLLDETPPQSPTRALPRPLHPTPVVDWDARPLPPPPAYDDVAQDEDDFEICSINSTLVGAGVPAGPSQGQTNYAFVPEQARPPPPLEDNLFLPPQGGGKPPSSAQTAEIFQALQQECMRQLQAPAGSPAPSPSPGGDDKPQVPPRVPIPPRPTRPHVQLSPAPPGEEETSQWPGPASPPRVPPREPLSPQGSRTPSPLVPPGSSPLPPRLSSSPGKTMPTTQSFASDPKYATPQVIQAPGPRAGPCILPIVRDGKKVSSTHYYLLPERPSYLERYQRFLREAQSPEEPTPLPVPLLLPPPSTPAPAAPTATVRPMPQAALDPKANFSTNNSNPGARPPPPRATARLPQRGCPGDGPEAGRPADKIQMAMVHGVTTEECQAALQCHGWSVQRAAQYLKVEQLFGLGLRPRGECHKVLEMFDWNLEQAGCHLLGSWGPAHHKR
human Akt1 kinase, sequence (P31749 whole entry): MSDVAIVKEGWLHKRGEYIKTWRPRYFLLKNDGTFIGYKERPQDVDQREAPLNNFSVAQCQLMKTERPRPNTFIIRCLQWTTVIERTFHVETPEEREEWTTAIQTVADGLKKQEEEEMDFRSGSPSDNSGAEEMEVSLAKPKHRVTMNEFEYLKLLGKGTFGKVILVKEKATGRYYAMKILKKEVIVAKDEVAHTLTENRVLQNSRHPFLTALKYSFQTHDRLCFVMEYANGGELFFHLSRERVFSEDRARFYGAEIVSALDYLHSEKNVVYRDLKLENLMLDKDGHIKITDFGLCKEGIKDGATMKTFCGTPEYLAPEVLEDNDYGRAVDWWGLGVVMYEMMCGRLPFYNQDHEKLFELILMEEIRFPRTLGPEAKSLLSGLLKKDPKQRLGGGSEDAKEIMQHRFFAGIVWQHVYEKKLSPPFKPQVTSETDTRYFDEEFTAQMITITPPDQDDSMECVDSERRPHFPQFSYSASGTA
T1 sequence (P49759 161-477 limits assumed): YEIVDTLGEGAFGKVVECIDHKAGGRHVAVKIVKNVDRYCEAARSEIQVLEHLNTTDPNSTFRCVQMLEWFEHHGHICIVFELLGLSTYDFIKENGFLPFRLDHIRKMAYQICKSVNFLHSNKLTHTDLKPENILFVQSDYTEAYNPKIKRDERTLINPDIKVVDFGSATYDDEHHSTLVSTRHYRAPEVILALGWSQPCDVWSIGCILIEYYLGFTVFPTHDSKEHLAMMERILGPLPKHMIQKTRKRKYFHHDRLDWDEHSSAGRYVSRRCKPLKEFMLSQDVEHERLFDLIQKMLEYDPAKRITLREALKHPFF

Row | SMILES | inhibition at 12.5 µM (human Akt1 kinase) | IC50 (human Akt1 kinase) | inhibition at 12.5 µM (human Ack1 kinase) | IC50 (human Clk1 kinase) | IC50 [1] | EC50 [2] | solubility at 24 h (physchem; pH 2, aqueous buffer) | solubility at 24 h (physchem; pH 7.4, aqueous buffer) | EC50 [3] | EC50 [4] | EC50 [5]
1 | C[C@H](NC(=O)c1ccc2c(c1)/C(=C(/Nc1ccc(CN3CCCCC3)cc1)c1ccccc1)C(=O)N2)c1ccccc1 [Compound 30, (3Z)-2-oxo-N-[(1S)-1-phenylethyl]-3-(phenyl{[4-(piperidin-1-ylmethyl)phenyl]amino}methylene)indoline-5-carboxamide] | 93% | 1300 nM | 80.5% | 10 nM | < 10 nM | 5980 nM | 110 to 120 µM (≈ 61.2 to 66.8 µg/mL) | < 10 µM | 10 nM | 10 nM | 580 nM
2 | C[C@@H](NC(=O)c1ccc2c(c1)/C(=C(/Nc1cccc(CN3CCCCC3)c1)c1ccccc1)C(=O)N2)c1ccccc1 [Compound 13, (3Z)-2-oxo-N-[(1R)-1-phenylethyl]-3-(phenyl{[3-(piperidin-1-ylmethyl)phenyl]amino}methylene)indoline-5-carboxamide] | 60.6% | 5940 nM | 13.7% | 30 nM | 160 nM | 9340 nM | 110 to 120 µM (≈ 61.2 to 66.8 µg/mL) | < 10 µM | 170 nM | 140 nM | 5660 nM
3 | COc1ccc([C@@H](C)NC(=O)c2ccc3c(c2)/C(=C(/Nc2ccc(CN4CCCCC4)cc2)c2ccccc2)C(=O)N3)cc1 [Compound 21, (3Z)-N-[(1R)-1-(4-methoxyphenyl)ethyl]-2-oxo-3-(phenyl{[4-(piperidin-1-ylmethyl)phenyl]amino}methylene)indoline-5-carboxamide] | 78.2% | 1700 nM | 87% | 20 nM | 1480 nM | > 30000 nM | 100 to 110 µM (≈ 58.7 to 64.5 µg/mL) | < 10 µM | 410 nM | 320 nM | 5300 nM
4 | COc1cccc([C@@H](C)NC(=O)c2ccc3c(c2)/C(=C(/Nc2ccc(CN4CCCCC4)cc2)c2ccccc2)C(=O)N3)c1 [Compound 22, (3Z)-N-[(1R)-1-(3-methoxyphenyl)ethyl]-2-oxo-3-(phenyl{[4-(piperidin-1-ylmethyl)phenyl]amino}methylene)indoline-5-carboxamide] | 88% | 110 nM | 83.8% | 20 nM | < 10 nM | > 30000 nM | 110 to 120 µM (≈ 64.5 to 70.4 µg/mL) | < 10 µM | 40 nM | 20 nM | 1060 nM
5 | COc1cccc([C@@H](C)NC(=O)c2ccc3c(c2)/C(=C(/Nc2cccc(CN4CCCCC4)c2)c2ccccc2)C(=O)N3)c1 [Compound 24, (3Z)-N-[(1R)-1-(3-methoxyphenyl)ethyl]-2-oxo-3-(phenyl{[3-(piperidin-1-ylmethyl)phenyl]amino}methylene)indoline-5-carboxamide] | 76.8% | 880 nM | 13.7% | 80 nM | 420 nM | 11800 nM | 110 to 120 µM (≈ 64.5 to 70.4 µg/mL) | < 10 µM | 380 nM | 290 nM | 6090 nM
6 | CC[C@@H](NC(=O)c1ccc2c(c1)/C(=C(/Nc1ccc(CN3CCCCC3)cc1)c1ccccc1)C(=O)N2)c1ccccc1 [Compound 18, (3Z)-2-oxo-3-(phenyl{[4-(piperidin-1-ylmethyl)phenyl]amino}methylene)-N-[(1R)-1-phenylpropyl]indoline-5-carboxamide] | 92.1% | 570 nM | 85.9% | 30 nM | < 10 nM | > 30000 nM | 110 to 120 µM (≈ 62.8 to 68.5 µg/mL) | < 10 µM | 10 nM | 4 nM | 310 nM
